Measurements from patent US20010046504A1, “CYCLOPHOSPHAMIDE FILM-COATED TABLETS” (priority 1998, published 2001).

Type: physicochemical
Protocol: Investigations on the Compatibility of Cyclophosphamide with Various Tableting Auxiliaries […] The pressed tablets were stored at 31° C. for 6 months. The decomposition of the active compound was carried out [sic] by means of chloride determination.

Substance: Preswollen starch [Auxiliary 9]
- Stability of cyclophosphamide in the presence of auxiliary (in words): somewhat indifferent
